Experimental data: PMC5812785 (Nature chemical biology, 2018)

Tests used:
[1] = biological target: TIR1 (Arabidopsis thaliana, UniProt Q38825+Q570C0); format: binding
[2] = biological target: ccvTIR1 (TIR1^F79G) (Arabidopsis thaliana, UniProt Q38825+Q570C0, Q570C0:F79G); format: binding
Chain of ccvTIR1 (TIR1^F79G) (Q570C0 whole entry F79G, other chains not shown): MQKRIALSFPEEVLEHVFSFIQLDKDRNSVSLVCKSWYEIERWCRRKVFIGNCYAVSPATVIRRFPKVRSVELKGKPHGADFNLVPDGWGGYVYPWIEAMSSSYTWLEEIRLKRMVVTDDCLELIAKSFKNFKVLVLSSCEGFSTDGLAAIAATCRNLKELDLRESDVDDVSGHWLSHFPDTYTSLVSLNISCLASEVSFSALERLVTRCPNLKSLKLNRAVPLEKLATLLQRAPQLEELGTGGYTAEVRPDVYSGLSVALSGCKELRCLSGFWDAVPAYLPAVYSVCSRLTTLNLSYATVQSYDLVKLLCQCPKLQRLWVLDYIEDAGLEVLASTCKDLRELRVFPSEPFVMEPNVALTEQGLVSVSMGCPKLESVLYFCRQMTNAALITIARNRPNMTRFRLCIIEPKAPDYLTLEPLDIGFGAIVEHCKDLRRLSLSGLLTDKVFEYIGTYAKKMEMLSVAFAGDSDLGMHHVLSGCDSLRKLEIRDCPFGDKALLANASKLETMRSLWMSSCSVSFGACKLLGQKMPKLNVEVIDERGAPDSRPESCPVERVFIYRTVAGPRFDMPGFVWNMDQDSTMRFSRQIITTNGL

Chain of TIR1 (Q570C0 whole entry, other chains not shown): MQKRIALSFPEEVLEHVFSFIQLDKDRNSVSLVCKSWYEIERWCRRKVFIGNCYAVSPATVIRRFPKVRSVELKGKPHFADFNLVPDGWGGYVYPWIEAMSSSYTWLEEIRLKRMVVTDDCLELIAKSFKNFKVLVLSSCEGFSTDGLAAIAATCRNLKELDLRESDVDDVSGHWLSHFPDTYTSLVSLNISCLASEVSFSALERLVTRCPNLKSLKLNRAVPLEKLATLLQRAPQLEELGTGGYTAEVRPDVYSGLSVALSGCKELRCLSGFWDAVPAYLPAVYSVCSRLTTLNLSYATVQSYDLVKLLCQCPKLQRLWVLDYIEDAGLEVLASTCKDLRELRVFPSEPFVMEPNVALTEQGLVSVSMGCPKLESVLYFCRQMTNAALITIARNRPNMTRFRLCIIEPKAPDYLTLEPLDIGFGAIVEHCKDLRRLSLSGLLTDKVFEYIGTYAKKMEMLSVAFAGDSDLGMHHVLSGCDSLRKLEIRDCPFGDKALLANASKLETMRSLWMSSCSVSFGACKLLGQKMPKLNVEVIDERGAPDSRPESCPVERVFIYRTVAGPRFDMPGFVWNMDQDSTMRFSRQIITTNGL

SMILES: O=C(O)Cc1c[nH]c2ccccc12 [IAA, indole-3-acetic acid]
- EC50 [1]: 11.5 ± 1.23 µM

SMILES: COc1cccc(-c2ccc3[nH]cc(CC(=O)O)c3c2)c1 [compound 1, 5-(3-methoxyphenyl)indole-3-acetic acid]
- EC50 [2]: 3.98 ± 0.6 µM
